# Patent US20130045299A1, “Natural Mold Inhibitor and Methods of Using Same” (priority 2011, published 2013)
# What was measured:
# [1] = system: mold; assay: Mold-free shelf life of packaged bread, inspected daily (days to mold)
# Description: Bread is prepared using the no-time, straight dough method by mixing the following ingredients in a Hobart A200 mixer with a McDuffy attachment for a total of 8 minutes until full gluten development is obtained: flour (100%), water (68%), granulated sugar (7%), shortening (4%), fresh yeast (2.5%), 30% acetic acid vinegar or 300 grain vinegar (0%, 2%, 1% or 0.5%), and citric acid (0% or 0.1%). Mixed dough is rested for 10 minutes on bench then scaled into two 520 gram dough pieces and rounded by hand. Rounded dough is rested 10 minutes then is sheeted and molded into logs. Sheeted and molded logs are placed into oiled bread pans and placed into proof box (National Manufacturing) and set to 110° F. and 80% relative humidity. Dough is proofed to a consistent height, as measured by a template which was 0.75 inches above the rim of the bread pan. Proof time is considered to be time for dough to touch the top of the template minus initial time in the proof box. Proofed dough is then placed into an oven and baked for 20 minutes at a temperature of 420° F. Internal temperature of the bread exiting the oven is 195° F.-200° F. Baked bread is cooled at room temperature on a wire rack for one hour to an internal temperature of between 95° F. and 100° F. After cooling, bread is sliced and packaged in plastic bags and sealed with twist ties. Packaged bread is stored at room temperature 70° F.-75° F. and visually inspected for mold appearance on a daily basis. Bread is considered as expired/failed upon first sign of mold.
# Mixed dough is rested for 10 minutes on bench then scaled into two 520 gram dough pieces and rounded by hand. Rounded dough is rested 10 minutes then sheeted and molded into logs. Sheeted and molded logs are placed into oiled bread pans and placed into proof box (National Manufacturing) set to 110° F. and 80% relative humidity. Dough is proofed to a consistent height, as measured by a template which was 0.75 inches above the rim of the bread pan. Proof time is considered to be time for dough to touch the top of the template minus initial time in the proof box. Proofed dough is then placed into an oven and is baked for 20 minutes at a temperature of 420° F. The internal temperature of the bread exiting the oven is 195° F.-200° F. Baked bread is cooled at room temperature on a wire rack for one hour to an internal temperature of between 95° F. and 100° F. After cooling, the bread is sliced and packaged in plastic bags and sealed with twist ties.
# Packaged bread is stored at room temperature 70° F.-75° F. Packaged bread is visually inspected for mold appearance on a daily basis. Bread is considered as expired/failed upon first sign of mold.
# [2] = pH of baked bread; format: physicochemical
smiles,measurement,setting,value
"CCC(=O)[O-].CCC(=O)[O-].[Ca+2] [Calcium Propionate, calcium propionate]",Days to Mold,"[1]; Table 4, 0.33%",15 days
same,Days to Mold,"[1]; Table 4, 0.5%",17 days
same,Days to Mold,"[1]; Table 6, white pan bread, 0.33%",14 days
same,Days to Mold,"[1]; Table 7, white pan bread, 0.33%",14 days
same,Days to Mold,"[1]; Table 8, 0.33% (flour basis)",9 days
same,Days to Mold,"[1]; Table 8, 0.50% (flour basis)",12 days
same,Days to Mold,"[1]; Table 8, 0.75% (flour basis)",23 days
same,Days to Mold,"[1]; Table 8, 1.00% (flour basis)",32 days
same,Days to Mold,"[1]; Table 9, White Pan Bread, 0.33%",11 days
same,Days to Mold,"[1]; Table 10, White Pan Bread, 0.33%",15 days
same,Days to Mold,"[1]; Table 10, 0.50%",17 days
same,pH Bread,"[2]; Table 4, 0.33%",5.60
same,pH Bread,"[2]; Table 4, 0.5%",5.45
same,pH Bread,"[2]; Table 6, 0.33%",5.62
same,pH Bread,"[2]; Table 7, 0.33%",5.72
same,pH Bread,"[2]; Table 8, 0.33% (flour basis)",5.57
same,pH Bread,"[2]; Table 8, 0.50% (flour basis)",5.57
same,pH Bread,"[2]; Table 8, 0.75% (flour basis)",5.58
same,pH Bread,"[2]; Table 8, 1.00% (flour basis)",5.59
